Laboratory results taken from patent US20260209214A1, “LSD1 MODULATORS” (RECURSION PHARMACEUTICALS, INC., priority 2022, published 2026).

What follows are compounds tested against Recombinant human LSD1 (Homo sapiens, UniProt O60341) (assay: LSD1 inhibition assay (HTRF LSD1 Histone H3K4 mono-demethylation assay, me1->me0)). Conditions: 20 nM recombinant human LSD1, 95 nM H3K4(me1) biotinylated peptide, 15 min preincubation, 60 min at 25° C., read-out: LSD1 inhibition IC50 (nM range).
Format: biochemical
Method: LSD1 biochemical activity was measured using the HTRF® LSD1 Histone H3K4 mono-demethylation assay (me1->me0). Briefly, the enzymatic buffer was prepared by addition of 50 mM Tris-HCl (Sigma cat #T2663-IL), 50 mM NaCl (ThermoFisher cat #AM9759) and 0.01% Tween 20 (ThermoFisher cat #J20605.AP) in distilled water (final pH 8.5). This buffer was supplemented with 10 μM FAD (Fisher Scientific cat #11411838) and 1 mM DTT (Sigma cat #D0632). For the assay, H3K4(me1) biotinylated peptide substrate (Anaspec, cat #64355) was added to provide a final assay concentration of 95 nM. The streptavidin-XL665 (Cisbio cat #610SAXLA) and H3K4 me0-Eu(K) antibody-cryptate (Cisbio, cat #61 KAOKAD) detection reagents were mixed according to the manufacturer's instructions. Test compounds were diluted in DMSO in a series of 10 semi-log step doses; 10 nL of each compound dose were dispensed in 384 well plates. Recombinant human LSD1 was diluted into enzymatic buffer to provide a final assay concentration of 20 nM and added to the tested compounds for 15 minutes. The reaction was started by addition of the substrate and incubated at 25° C. for 60 minutes. The detection reagents were added, and the plate was incubated in the dark for 90 minutes. Fluorescence was measured on an Envision 2103 plate reader with optical setup for […] in the HTRF mode. The ratio of acceptor and donor emission signals was calculated for each well. Percent inhibition values were calculated from the HTRF ratios at different doses and fitted to a 4-parameter logistic curve to determine IC50 values. […]

| IC50 [nM] | SMILES |
| --- | --- |
| 10 to 25 | N#Cc1ccc(-c2cc(F)cc(CC3CNCCO3)c2-c2cncs2)cc1F (stereo not shown) [Example 19, 3,5′-difluoro-3′-[(morpholin-2-yl)methyl]-2′-(1,3-thiazol-5-yl)-[1,1′-biphenyl]-4-carbonitrile] |
| 25 to 100 | N#Cc1ccc(-c2cccc(C[C@H]3CNCCO3)c2-c2scnc2Cl)cc1F (single isomer, unassigned) [Example 31] |
| 100 to 1000 | COC1CCN(c2ccc(CC3CNCCO3)cc2-c2ccc(C#N)c(F)c2)CC1 (stereo not shown) [Example 52, 3-fluoro-2′-(4-methoxypiperidin-1-yl)-5′-[(morpholin-2-yl)methyl]-[1,1′-biphenyl]-4-carbonitrile] |
| > 1000 | N#Cc1ccc(-c2cccc(CC3CNCCO3)c2N2CC(O)C2)cc1F (stereo not shown) [Example 159, 3-fluoro-2′-(3-hydroxyazetidin-1-yl)-3′-[(morpholin-2-yl)methyl]-[1,1′-biphenyl]-4-carbonitrile] |
| 100 to 1000 | N#Cc1ccc(-c2cc(CC3CNCCO3)ccc2N2CCCC2)cc1F (stereo not shown) [Example 147, 3-fluoro-5′-[(morpholin-2-yl)methyl]-2′-(pyrrolidin-1-yl)-[1,1′-biphenyl]-4-carbonitrile] |
| 100 to 1000 | N#Cc1ccc(-c2cccc(CN3CC[C@@H]4NCCC[C@@H]43)c2C2CC2)cc1F [Example 271, Fc1cc(ccc1C#N)c2cccc(CN3CC[C@@H]4NCCC[C@H]34)c2C5CC5] |
| 100 to 1000 | N#Cc1ccc(-c2cccc(CC3CNCCO3)c2C2CC2)cc1F (stereo not shown) [Example 42, 2′-cyclopropyl-3-fluoro-3′-[(morpholin-2-yl)methyl]-[1,1′-biphenyl]-4-carbonitrile] |
| 100 to 1000 | N#Cc1ccc(-c2cccc(CN3CCC4(CCCN4)C3)c2C2CC2)cc1F (stereo not shown) [Example 266, Fc1cc(ccc1C#N)c2cccc(CN3CCC4(CCCN4)C3)c2C5CC5] |
| 10 to 25 | N#Cc1ccc(-c2cccc(CC3CNCCO3)c2-c2cncs2)cc1 (stereo not shown) [Example 34, 3′-[(morpholin-2-yl)methyl]-2′-(1,3-thiazol-5-yl)-[1,1′-biphenyl]-4-carbonitrile] |
| 100 to 1000 | CCOCC1(O)CCN(c2ccc(CC3CNCCO3)cc2-c2ccc(C#N)c(F)c2)CC1 (stereo not shown) [Example 63, 2′-[4-(ethoxymethyl)-4-hydroxypiperidin-1-yl]-3-fluoro-5′-[(morpholin-2-yl)methyl]-[1,1′-biphenyl]-4-carbonitrile] |
| 100 to 1000 | Cc1cc(CNCC2CCCN(C)C2)c(Cl)c(-c2ccc(C#N)c(F)c2)c1 (stereo not shown) [Example 346, 2'-chloro-3-fluoro-5'-methyl-3'-({[(1-methylpiperidin-3-yl)methyl]amino}methyl)-[1,1'-biphenyl]-4-carbonitrile] |
| < 10 | N#Cc1ccc(-c2cccc(CC3CCCNC3)c2-c2ccns2)cc1F (stereo not shown) [Example 71, 3-fluoro-3′-[(piperidin-3-yl)methyl]-2′-(1,2-thiazol-5-yl)-[1,1′-biphenyl]-4-carbonitrile] |
| 100 to 1000 | CN1CCC(O)(Cc2cccc(-c3ccc(C#N)c(F)c3)c2C2CC2)CC1 [Example 166, 2′-cyclopropyl-3-fluoro-3′-[(4-hydroxy-1-methylpiperidin-4-yl)methyl]-[1,1′-biphenyl]-4-carbonitrile] |
| 25 to 100 | N#Cc1ccc(-c2cccc(CN3C[C@]4(N)CC[C@H]3C4)c2C2CC2)cc1 [Example 184, 3'-{[(1S,4S)-4-amino-2-azabicyclo[2.2.1]heptan-2-yl]methyl}-2'-cyclopropyl-[1,1'-biphenyl]-4-carbonitrile] |
| > 1000 | N#Cc1ccc(-c2cc(CN3CC4(CNCCO4)C3)ccc2N2CCCC2)cc1 [Example 343, 5'-({5-oxa-2,8-diazaspiro[3.5]nonan-2-yl}methyl)-2'-(pyrrolidin-1-yl)-[1,1'-biphenyl]-4-carbonitrile] |
| 10 to 25 | Cc1ncsc1-c1c(CC2CNCCO2)cccc1-c1ccc(C#N)cc1 (stereo not shown) [Example 38, 2′-(4-methyl-1,3-thiazol-5-yl)-3′-[(morpholin-2-yl)methyl]-[1,1′-biphenyl]-4-carbonitrile] |
| 100 to 1000 | N#Cc1ccc(-c2cc(CC3CNCCO3)ccc2N2CC3(CCOC3)C2)cc1F (stereo not shown) [Example 127] |
| 100 to 1000 | N#Cc1ccc(-c2cc(CC3CNCCO3)ccc2N2CCCC3(CCOC3)C2)cc1F (stereo not shown) [Example 118, 3-fluoro-5′-[(morpholin-2-yl)methyl]-2′-{2-oxa-7-azaspiro[4.5]decan-7-yl}-[1,1′-biphenyl]-4-carbonitrile] |
| 100 to 1000 | N#Cc1ccc(-c2cc(C3CNCCO3)ccc2N2CCCCC2)cc1F (stereo not shown) [Example 168, 3-fluoro-5′-(morpholin-2-yl)-2′-(piperidin-1-yl)-[1,1′-biphenyl]-4-carbonitrile] |
| 10 to 25 | N#Cc1ccc(-c2cccc(CC3CNCCO3)c2-c2ocnc2F)cc1 (stereo in doubt) [Example 2, 2′-(4-fluoro-1,3-oxazol-5-yl)-3′-{[(2R)-morpholin-2-yl]methyl}-[1,1′-biphenyl]-4-carbonitrile] |
| 100 to 1000 | N#Cc1ccc(-c2cccc(CC3CNCCO3)c2-c2ccncc2)cc1F (stereo not shown) [Example 148, 3-fluoro-3′-[(morpholin-2-yl)methyl]-2′-(pyridin-4-yl)-[1,1′-biphenyl]-4-carbonitile] |
| < 10 | N#Cc1ccc(-c2cc(CN3C[C@]4(N)CC[C@H]3C4)ccc2N2CCC3(CCOC3)CC2)cc1F [Example 234, 5'-{[(1S,4S)-4-amino-2-azabicyclo[2.2.1]heptan-2-yl]methyl}-3-fluoro-2'-{2-oxa-8-azaspiro[4.5]decan-8-yl}-[1,1'-biphenyl]-4-carbonitrile] |
| 100 to 1000 | N#Cc1ccc(-c2cc(CC3CNCCO3)ccc2N2CCN(c3nccs3)CC2)cc1F (stereo not shown) [Example 88, 3-fluoro-5′-[(morpholin-2-yl)methyl]-2′-[4-(1,3-thiazol-2-yl)piperazin-1-yl]-[1,1′-biphenyl]-4-carbonitrile] |
| > 1000 | N#Cc1ccc(-c2cc(CC3CNCCO3)ccc2C2COC2)cc1F (stereo not shown) [Example 150, 3-fluoro-5'-[(morpholin-2-yl)methyl]-2'-(oxetan-3-yl)-[1,1'-biphenyl]-4-carbonitrile] |
| 25 to 100 | Cc1cc(-c2cccc(CC3CNCCO3)c2-c2ccns2)ccc1C#N (stereo not shown) [Example 43, 3-methyl-3′-[(morpholin-2-yl)methyl]-2′-(1,2-thiazol-5-yl)-[1,1′-biphenyl]-4-carbonitrile] |
| 100 to 1000 | CC1(O)CCN(c2ccc(CC3CNCCO3)c(F)c2-c2ccc(C#N)c(F)c2)CC1 (stereo not shown) [Example 155, 2′,3-difluoro-6′-(4-hydroxy-4-methylpiperidin-1-yl)-3′-[(morpholin-2-yl)methyl]-[1,1′-biphenyl]-4-carbonitrile] |

| SMILES | IC50 [nM] |
| --- | --- |
| N#Cc1ccc(-c2cccc(CN3[C@@H]4CC[C@H]3[C@@H](N)C4)c2-c2ccns2)cc1F [Example 192, N[C@H]1C[C@H]2CC[C@@H]1N2Cc3cccc(c4ccc(C#N)c(F)c4)c3c5ccns5] | < 10 |
| COC1(C)CCN(c2ccc(CN3[C@@H]4CC[C@H]3[C@@H](N)C4)cc2-c2ccc(C#N)c(F)c2)CC1 (racemic) [Example 232, 5'-{[(1S,2S,4R)-2-amino-7-azabicyclo[2.2.1]heptan-7-yl]methyl}-3-fluoro-2'-(4-methoxy-4-methylpiperidin-1-yl)-[1,1'-biphenyl]-4-carbonitrile] | 10 to 25 |
| N#Cc1ccc(-c2cccc(CN3[C@@H]4CC[C@H]3[C@H](N)C4)c2C2CC2)cc1F (racemic) [Example 319, 3'-{[(1S,2R,4R)-2-amino-7-azabicyclo[2.2.1]heptan-7-yl]methyl}-2'-cyclopropyl-3-fluoro-[1,1'-biphenyl]-4-carbonitrile] | 25 to 100 |
| N#Cc1ccc(-c2cccc(CN3[C@H]4CC[C@@H]3[C@H](N)C4)c2CC2CC2)cc1F (single isomer, unassigned) [Example 221] | 25 to 100 |
| N#Cc1ccc(-c2cc(CN3[C@@H]4CC[C@H]3[C@@H](N)C4)ccc2-c2ccns2)cc1F (racemic) [Example 314, 5'-{[(1S,2S,4R)-2-amino-7-azabicyclo[2.2.1]heptan-7-yl]methyl}-3-fluoro-2'-(1,2-thiazol-5-yl)-[1,1'-biphenyl]-4-carbonitrile] | 10 to 25 |
| N#Cc1ccc(-c2cccc(CN3[C@H]4CC[C@@H]3[C@H](N)C4)c2-c2ccns2)cc1 (single isomer, unassigned) [Example 187] | 10 to 25 |
| N#Cc1ccc(-c2cccc(CN3[C@@H]4CC[C@H]3[C@@H](N)C4)c2C(F)F)cc1F (racemic) [Example 301, 3'-{[(1S,2S,4R)-2-amino-7-azabicyclo[2.2.1]heptan-7-yl]methyl}-2'-(difluoromethyl)-3-fluoro-[1,1'-biphenyl]-4-carbonitrile] | 25 to 100 |
| CN(CC1CC1)c1ccc(CN2[C@@H]3CC[C@H]2[C@@H](N)C3)cc1-c1ccc(C#N)c(F)c1 (racemic) [Example 254, 5'-{[(1S,2S,4R)-2-amino-7-azabicyclo[2.2.1]heptan-7-yl]methyl}-2'-[(cyclopropylmethyl)(methyl)amino]-3-fluoro-[1,1'-biphenyl]-4-carbonitrile] | 10 to 25 |
